Measurements from ChEMBL document CHEMBL4706683 (J Med Chem, 2021).
The source made the active and inactive calls. No cut-off for these calls is given here.

Tests used:
[1] = test system: Plasmodium falciparum; assay: Antiplasmodial activity against synchronized ring stage Plasmodium falciparum Dd2 infected in human erythrocytes assessed as reduction in parasite growth incubated for 72 hrs by Giemsa staining based light microscopic method; format: functional, organism-based; details: Dd2, Erythrocyte
[2] = Tmax in Balb/c mouse at 5 mg/kg, ip administered as single dose measured upto 24 hrs by LC-MS/MS analysis; format: ADME, organism-based; details: in vivo
[3] = target: T1, Protein deacetylase HDAC6 (Homo sapiens, UniProt Q9UBN7); assay: Inhibition of human HDAC6 using Ac-peptide as substrate preincubated for 15 mins followed by substrate and trypsin addition and further incubated for 60 mins
T1 sequence (Q9UBN7 whole entry): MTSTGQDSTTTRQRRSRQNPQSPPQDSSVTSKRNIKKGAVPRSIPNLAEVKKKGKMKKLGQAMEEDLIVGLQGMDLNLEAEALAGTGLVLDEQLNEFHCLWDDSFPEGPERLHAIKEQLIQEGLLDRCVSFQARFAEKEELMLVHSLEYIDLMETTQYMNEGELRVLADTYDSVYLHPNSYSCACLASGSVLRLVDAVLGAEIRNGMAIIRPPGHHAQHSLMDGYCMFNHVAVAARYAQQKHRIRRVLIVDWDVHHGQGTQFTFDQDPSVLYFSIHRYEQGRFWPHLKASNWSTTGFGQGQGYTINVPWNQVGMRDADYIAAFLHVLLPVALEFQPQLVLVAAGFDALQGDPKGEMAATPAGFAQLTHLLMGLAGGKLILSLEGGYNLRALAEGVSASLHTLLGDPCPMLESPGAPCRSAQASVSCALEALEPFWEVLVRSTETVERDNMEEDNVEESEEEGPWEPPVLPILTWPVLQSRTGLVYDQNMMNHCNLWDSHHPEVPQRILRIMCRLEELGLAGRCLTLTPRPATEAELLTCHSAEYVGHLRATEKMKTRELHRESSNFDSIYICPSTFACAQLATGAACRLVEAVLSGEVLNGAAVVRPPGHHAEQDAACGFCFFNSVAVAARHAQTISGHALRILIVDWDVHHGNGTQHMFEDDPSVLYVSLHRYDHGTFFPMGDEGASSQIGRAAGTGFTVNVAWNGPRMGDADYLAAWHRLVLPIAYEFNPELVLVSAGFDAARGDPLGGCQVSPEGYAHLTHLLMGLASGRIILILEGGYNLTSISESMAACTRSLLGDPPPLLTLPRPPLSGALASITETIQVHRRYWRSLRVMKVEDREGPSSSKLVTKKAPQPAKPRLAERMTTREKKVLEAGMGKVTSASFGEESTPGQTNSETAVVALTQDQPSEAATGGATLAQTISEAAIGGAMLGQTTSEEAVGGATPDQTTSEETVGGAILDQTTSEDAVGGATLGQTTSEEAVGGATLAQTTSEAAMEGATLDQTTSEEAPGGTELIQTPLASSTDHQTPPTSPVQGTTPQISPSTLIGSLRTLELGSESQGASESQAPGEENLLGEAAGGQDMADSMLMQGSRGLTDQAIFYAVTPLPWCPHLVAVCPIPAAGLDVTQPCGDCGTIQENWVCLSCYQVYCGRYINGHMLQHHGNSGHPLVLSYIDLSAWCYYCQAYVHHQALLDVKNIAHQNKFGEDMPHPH

[4] = Half life in Balb/c mouse at 5 mg/kg, ip administered as single dose measured upto 24 hrs by LC-MS/MS analysis; format: ADME, organism-based; details: in vivo
[5] = target: T2, Histone deacetylase 8 (Homo sapiens, UniProt Q9BY41); assay: Inhibition of full length human C-terminal His-tagged HDAC8 expressed in baculovirus infected Sf9 cells using Ac-peptide as substrate preincubated for 15 mins followed by substrate addition and incubated for 120 mins followed by trypsin addition and further incubated for 240 mins
T2 sequence (Q9BY41 whole entry): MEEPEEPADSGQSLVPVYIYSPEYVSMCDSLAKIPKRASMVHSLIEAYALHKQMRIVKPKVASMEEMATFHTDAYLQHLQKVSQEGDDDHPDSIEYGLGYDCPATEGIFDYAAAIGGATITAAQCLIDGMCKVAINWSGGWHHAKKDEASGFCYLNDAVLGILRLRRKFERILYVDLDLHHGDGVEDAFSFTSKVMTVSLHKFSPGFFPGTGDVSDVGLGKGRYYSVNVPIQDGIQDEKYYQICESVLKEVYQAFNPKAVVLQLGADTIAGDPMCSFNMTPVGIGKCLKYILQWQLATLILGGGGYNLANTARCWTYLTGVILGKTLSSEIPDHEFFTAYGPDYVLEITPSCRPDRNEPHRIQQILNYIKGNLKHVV

[6] = test system: HepG2; assay: Cytotoxicity against human HepG2 cells assessed as reduction in cell viability incubated for 72 hrs by cell titer glo assay; format: cell-based; details: HepG2, 72 h
[7] = test system: Plasmodium falciparum; assay: Antiplasmodial activity against artemisinin-resistant Plasmodium falciparum 6218 assessed as reduction in parasite survival at 700 nM incubated for 6 hrs followed by compound washout thrice and further cultured in compound free medium for 66 hrs by RSA; format: functional, organism-based
[8] = test system: Plasmodium falciparum; assay: Antiplasmodial activity against Plasmodium falciparum CP286 infected in human erythrocytes assessed as reduction in parasite growth incubated for 72 hrs by Giemsa staining based light microscopic method; format: functional, organism-based; details: CP286, Erythrocyte
[9] = AUC (0 to t) in Balb/c mouse at 10 mg/kg, po administered as single dose measured upto 24 hrs by LC-MS/MS analysis; format: ADME, organism-based; parameters: route oral, dose 10 mg/kg, time <=24; details: in vivo
[10] = AUC (0 to infinity) in Balb/c mouse at 5 mg/kg, ip administered as single dose measured upto 24 hrs by LC-MS/MS analysis; format: ADME, organism-based; parameters: route intraperitoneal, dose 5 mg/kg, time <=24; details: in vivo
[11] = Cmax in Balb/c mouse at 10 mg/kg, po administered as single dose measured upto 24 hrs by LC-MS/MS analysis; format: ADME, organism-based; parameters: route oral, dose 10 mg/kg, time <=24; details: in vivo
[12] = Cmax in Balb/c mouse at 5 mg/kg, ip administered as single dose measured upto 24 hrs by LC-MS/MS analysis; format: ADME, organism-based; parameters: route intraperitoneal, dose 5 mg/kg, time <=24; details: in vivo
[13] = test system: Plasmodium falciparum; assay: (§1) Antimalarial activity against synchronized schizont stage transgenic Plasmodium falciparum 3D7 with C-terminal 3xTY1-fused HDAC2 knockdown assessed as parasite growth inhibition pretreated with glucosamine followed by compound treatment and incubated for 4 hrs followed by compound washout for thrice and subsequent culturing for 68 hrs by SYBR Green 1 staining based analysis; format: functional, organism-based
[14] = Half life in Balb/c mouse at 2 mg/kg, iv administered as single dose measured upto 24 hrs by LC-MS/MS analysis; format: ADME, organism-based; details: in vivo
[15] = AUC (0 to t) in Balb/c mouse at 2 mg/kg, iv administered as single dose measured upto 24 hrs by LC-MS/MS analysis; format: ADME, organism-based; parameters: route intravenous, dose 2 mg/kg, time <=24; details: in vivo
[16] = Toxicity in Balb/c mouse infected with blood stage Plasmodium yoelii assessed as recrudescence at 10 to 30 mg/kg, ip QD for 5 consecutive days and measured on day 20; format: organism-based; details: in vivo, 120 h, dose 10-30 mg/kg, time 5 day
[17] = Toxicity in Balb/c mouse infected with blood stage Plasmodium yoelii assessed as animal death at 10 to 30 mg/kg, ip QD for 5 consecutive days and measured on day 6; format: organism-based; details: in vivo, 120 h, dose 10-30 mg/kg, time 5 day
[18] = Selectivity index, ratio of IC50 for cytotoxicity against human HepG2 cells assessed to IC50 for antiplasmodial activity against synchronized ring stage Plasmodium falciparum 3D7 infected in human erythrocytes; format: toxicity, cell-based; details: read-out: Ratio IC50
[19] = test system: Plasmodium falciparum; assay: as §1, with “HDAC1” for “HDAC2”; format: functional, organism-based

With `Cl.O=C(NO)c1cnc(N2CCC3(CCN(Cc4c[nH]c5ccccc45)C3)CC2)nc1` the IC50 [1] was 1.9 nM, the Tmax [2] was 15 min and the IC50 [3] was 32 nM. The t1/2 [4] was 26.4 min, the IC50 [5] was 16 nM and the IC50 [6] was 264 nM. The Activity [7] was “Active”, the IC50 [8] was 4.26 nM and the AUC(0-t) at 24 h [9] was 2.94 ng·h/mL. The AUC(0-inf) [10] was 95.1 ng·h/mL, the Cmax [11] was 2.49 ng/mL and the Cmax [12] was 108 ng/mL. For the same molecule, the IC50 [13] was 52.2 nM, the half-life [14] was 43.2 min and the AUC(0-t) at 24 h [15] was 117 ng·h/mL. The Activity [16] was “Toxic”, the Activity [17] was “Non-Toxic” and the selectivity ratio [18] was 83. It also gave an IC50 [19] of 32.3 nM.
